According to publication PMC9975351 (Frontiers in Pharmacology, 2023):

Experiments:
CYP3A4/3A5 = assay: Metabolic stability in Silensome CYP3A4 (CYP3A4/3A5 contribution); format: in vitro ADME, human; settings: human
Procedure: (§1) Metabolic stability of GRL 0617 and formation of M1 and M3 were evaluated using Silensome control, Silensome CYP2D6 and Silensome CYP3A4 incubated with 1 or 10 µM GRL 0617 in the presence of NADPH. Other metabolites were detected less than 1% of parent. […] CYP2D6 played an exclusive role in the formation of M2, but the reactions were not saturated in the concentration range used in this study and thus, the calculated Kcat, and Km were out of the experiment condition.
(§2) In addition, the contribution of specific isoform using Silensomes were evaluated, and calculated parameters were shown in Supplemental Figure S4 and Table 4. […] The contribution of specific CYP 3A4 or CYP2D6 was calculated to be 79.6% or 21.8%, respectively, using equation as equation below. Calculated % CYP isoform contribution = CLintcontrol−ClintINH ⁄ CLintcontrol ([Bohnert et al., 2016]).
(§3) CYP3A4/5 metabolizes various chemicals composed of large, lipophilic molecules with diverse structures, and >50% of all prescribed drugs undergo CYP3A4 metabolism ([Zanger and Schwab, 2013]). CYP3A4-related drug interaction studies are critical for the prediction of drug–drug interactions in the clinic ([Prueksaritanont et al., 2013]). […] Thus, Silensome 3A4 represented contribution of both CYP3A4 and CYP3A5, compared with control Silensome. CYP3A5 expression in the liver differs between Africans/African Americans and Caucasians. […] CYP2D6 is a highly polymorphic gene involved in drug metabolism ([Ingelman-Sundberg et al., 2007]). […] Indeed, CYP2D6 metabolized the naphthalene side ring through hydroxylation, which is not linked to M1–M3 dehydration.
(§4) incubated in Silensome control, Silensome CYP2D6, and Silensome CYP3A4 with NADPH for 0, 10,
(§5) 15, 30, 45, 60, or 120 min. The remaining percentages of GRL 0617 are expressed as mean ± SD (n=3).
(§6) (1 picture or pasted object on this page, not shown here)

Silensome CYP3A4/3A5 = assay: as above; format: in vitro ADME, human; settings: (CLint control − CLint INH)/CLint control
Procedure: as §1, §2, §3, §4, §5, §6

In the case of `Cc1ccc(N)cc1C(=O)N[C@H](C)c1cccc2ccccc12` [GRL0617, 5-amino-2-methyl-N-[(1R)-1-(1-naphthalenyl)ethyl]benzamide], the half-life at 1 µM (CYP3A4/3A5) is reported as 1.42 h, the microsomal CLint at 1 µM (CYP3A4/3A5; Silensome CYP3A4/3A5 with NADPH, read-out: Intrinsic clearance (in vitro) Clint) is reported as 8.14 µL/min/mg and the “Contribution of CYP3A4 (CYP3A4/3A5) to metabolism” value (Silensome CYP3A4/3A5) is reported as 79.6%.
